Results taken from ChEMBL document CHEMBL1121775, “Synthesis and antimalarial effects of N2-aryl-N4-[(dialkylamino)alkyl]- and N4-aryl-N2-[(dialkylamino)alkyl]-2,4-quinazolinediamines” (J Med Chem, 1981).
Several values for one entry are separate records, joined by “and”; a condition that tells them apart may be missing. Equal entries are not always repeated.

How the values were obtained:
Plasmodium berghei [1] = experiment: Antimalarial effect against trophozoite-induced Plasmodium berghei in mice (Mus musculus) at 160 mg/kg subcutaneous dose; assay type: functional
Plasmodium berghei [2] = experiment: Antimalarial effect against trophozoite-induced Plasmodium berghei in mice (Mus musculus) after 40 mg/kg subcutaneous dose; assay type: functional
Plasmodium berghei [3] = experiment: Antimalarial effect against trophozoite-induced Plasmodium berghei in mice (Mus musculus) after 20 mg/kg subcutaneous dose; assay type: functional
Plasmodium berghei [4] = experiment: Antimalarial effect against trophozoite-induced Plasmodium berghei in mice (Mus musculus) at 80 mg/kg subcutaneous dose; assay type: functional
Mus musculus [5] = experiment: Number of mice cured at a subcutaneous dose of 160 mg/kg.; assay type: functional
Mus musculus [6] = experiment: Number of mice cured at a subcutaneous dose of 320 mg/kg.; assay type: functional
Plasmodium berghei [7] = experiment: Antimalarial activity against trophozoite-induced Plasmodium berghei in mice (Mus musculus) at 160 mg/kg subcutaneous dose; assay type: functional
Mus musculus [8] = experiment: Number of mice cured at a dose of 640 mg/kg sc; assay type: functional; settings: route subcutaneous
Plasmodium berghei [9] = experiment: Antimalarial effect against trophozoite-induced Plasmodium berghei in mice (Mus musculus) at 320 mg/kg subcutaneous dose; assay type: functional
Plasmodium berghei [10] = experiment: (§1) Antimalarial effect against trophozoite-induced Plasmodium berghei in mice (Mus musculus) at 640 mg/kg subcutaneous dose; assay type: functional
Mus musculus [11] = experiment: Number of toxic deaths at a dose of 640 mg/kg; assay type: toxicity, organism-based; parameters: dose 640 mg/kg; settings: in vivo
Plasmodium berghei [12] = experiment: Antimalarial activity against trophozoite-induced Plasmodium berghei in mice (Mus musculus); assay type: functional
[13] = The ratio of SD90 of the quinine hydrochloride, to the SD90 of the test substance for the Dose of mg/kg; assay type: functional
Plasmodium berghei [14] = experiment: as §1; assay type: functional; remark: listed apart in the source
Mus musculus [15] = experiment: Number of toxic deaths at a dose of 320 mg/kg; assay type: toxicity, organism-based; parameters: dose 320 mg/kg; settings: in vivo

| SMILES | MST (Plasmodium berghei [1]) [days] | MST (Plasmodium berghei [2]) [days] | MST (Plasmodium berghei [3]) [days] | No. of survivals (Mus musculus [8]) | MST (Plasmodium berghei [9]) [days] | MST (Plasmodium berghei [4]) [days] | MST (Plasmodium berghei [10]) [days] | other results |
| --- | --- | --- | --- | --- | --- | --- | --- | --- |
| CCN1CCCC(Nc2nc(Nc3ccc(Cl)c(Cl)c3)nc3c(Cl)cc(Cl)cc23)C1 (configuration not stated) | 0.5 | 0.3 | 0.3 |  |  |  |  |  |
| CCN1CCC(CNc2nc(Nc3ccc(Cl)c(Cl)c3)c3ccccc3n2)CC1 |  | 2.1 |  | 5 |  |  |  | MST (Plasmodium berghei [4]; 80 mg/kg): 6.7 days and 6.9 days; MST (Plasmodium berghei [3]; 20 mg/kg): 0.5 days and 0.7 days; No. of survivals (Mus musculus [5]): 1; No. of survivals (Mus musculus [6]): 5; MST (Plasmodium berghei [7]): 6.94 days |
| CCN1CCCC(Nc2nc(Nc3ccc(C(F)(F)F)cc3)c3ccccc3n2)C1 (configuration not stated) |  |  |  |  | 0.9 | -0.1 |  | MST (Plasmodium berghei [1]; 160 mg/kg): 0.2 days and 0.3 days; MST (Plasmodium berghei [10]; 640 mg/kg): 3.4 days and 3.1 days |
| CN(C)C1CCC(Nc2nc(Nc3ccc(Cl)c(Cl)c3)c3ccccc3n2)CC1 (configuration not stated) | 12.9 |  | 0.3 | 3 | 9.9 | 7.9 |  | MST (Plasmodium berghei [2]; 40 mg/kg): 4.1 days and 3.7 days; No. of survivals (Mus musculus [5]): 2; No. of survivals (Mus musculus [6]): 2; MST (Plasmodium berghei [7]): 12.6 days; No. of toxic deaths (Mus musculus [11]): 2 |
| CN(C)C1CCC(Nc2nc(Nc3cc(Cl)cc(Cl)c3)c3ccccc3n2)CC1 (configuration not stated) | 2.6 | 0 | -0.2 | 5 |  | 1.2 |  |  |
| FC(F)(F)c1ccc(Nc2nc(NCCCN3CCCCC3)nc3ccccc23)cc1 | -0.2 | -0.2 |  |  |  |  | 2.4 |  |
| CCN1CCCC(Nc2nc(Nc3cc(Cl)cc(Cl)c3)nc3cc(Cl)ccc23)C1 (configuration not stated) | 0.4 | 0.2 |  |  |  |  | 1.6 | SD90 (Plasmodium berghei [12]): 73 mg/kg/day; Ratio [13]: 73 |
| CCN(CC)CCCC(C)Nc1nc(Nc2ccc(O)c(CN(CC)CC)c2)c2ccccc2n1 (configuration not stated) |  |  | 0 | 3 | 7.4 | 1.4 | 5.6 | MST (Plasmodium berghei [1]; 160 mg/kg): 3.8 days and 1.6 days; MST (Plasmodium berghei [2]; 40 mg/kg): 0.6 days and 0.2 days; MST (Plasmodium berghei [14]): 3.1 days |
| Clc1cc(Cl)cc(Nc2nc(NCCCN3CCCC3)nc3ccccc23)c1 | 0.8 | 0.4 |  |  |  |  | 1.2 |  |
| CCN1CCCC(Nc2nc(Nc3ccc(Cl)c(Cl)c3)nc3ccc([N+](=O)[O-])cc23)C1 (configuration not stated) |  |  |  |  |  |  |  | SD90 (Plasmodium berghei [12]): 34 mg/kg/day |
| Clc1ccc(Nc2nc(NCCCN3CCCCC3)nc3ccccc23)cc1Cl |  |  | -0.2 |  | 1.6 | -0.4 |  | MST (Plasmodium berghei [10]; 640 mg/kg): 3 days and 4.1 days |
| CCN(CC)C1CCC(Nc2nc(Nc3ccc(Cl)c(Cl)c3)c3ccccc3n2)CC1 (configuration not stated) |  | 0.5 | 0.3 | 5 |  |  |  | MST (Plasmodium berghei [9]; 320 mg/kg): 14.4 days and 14.9 days; MST (Plasmodium berghei [4]; 80 mg/kg): 2.9 days and 3.1 days; No. of survivals (Mus musculus [5]; 160 mg/kg): 1 and 2; No. of survivals (Mus musculus [6]): 3; MST (Plasmodium berghei [7]; 160 mg/kg): 17.2 days and 15.6 days |
| OC1CCCN(CCCNc2nc(Nc3cccc4nsnc34)nc3ccccc23)C1 (configuration not stated) | 0 | 0 |  |  |  |  | 0 |  |
| CCN(CC)C1CCC(Nc2nc(Nc3ccc(SC)cc3)c3ccccc3n2)CC1 (configuration not stated) | 5.7 | 0.7 |  |  | 11.7 |  |  | MST (Plasmodium berghei [4]; 80 mg/kg): 1.1 days and 1.3 days; MST (Plasmodium berghei [3]; 20 mg/kg): 0.5 days and 0.7 days |
| CCN(CC)Cc1cc(Nc2nc(NCCN3CCCC3)c3ccccc3n2)ccc1O | 10.2 | 1.7 | 0.3 | 1 |  | 2.1 |  | No. of toxic deaths (Mus musculus [15]): 1; No. of survivals (Mus musculus [6]): 1; No. of toxic deaths (Mus musculus [11]): 1 |
| CCN(CC)CCCNc1nc(Nc2ccc(Cl)c(Cl)c2)c2ccccc2n1 |  |  | 0 | 1 | 8.4 | 2.8 |  | MST (Plasmodium berghei [1]; 160 mg/kg): 4.6 days and 5.2 days; MST (Plasmodium berghei [14]; 640 mg/kg): 9.8 days and 10.5 days |
| CCN(CC)C1CCC(Nc2nc(Nc3cccc(Br)c3)c3ccccc3n2)CC1 (configuration not stated) |  |  |  |  |  |  |  | MST (Plasmodium berghei [9]; 320 mg/kg): 12.9 days and 12.7 days; MST (Plasmodium berghei [1]; 160 mg/kg): 10.3 days and 10.1 days; MST (Plasmodium berghei [2]; 40 mg/kg): 0.3 days and 0.5 days; MST (Plasmodium berghei [4]; 80 mg/kg): 2.5 days and 2.7 days; MST (Plasmodium berghei [3]; 20 mg/kg): 0.3 days and 0.5 days; No. of survivals (Mus musculus [8]; 640 mg/kg): 3 and 2 |
| CN(C)C1CCC(Nc2nc(Nc3ccc(C(F)(F)F)cc3)c3ccccc3n2)CC1 (configuration not stated) | 0.7 | 1.1 |  |  |  |  | 0.7 |  |
| CCN(CC)CCCC(C)Nc1nc(Nc2cc(Cl)cc(Cl)c2)c2ccccc2n1 (configuration not stated) |  |  | 0.1 |  | 3.1 | -0.1 |  | MST (Plasmodium berghei [1]; 160 mg/kg): 1.1 days and 1.2 days; MST (Plasmodium berghei [10]; 640 mg/kg): 4.9 days and 4.4 days |
